Assay results taken from patent US8501794B2, “Compounds as cannabinoid receptor ligands” (priority 2007, dated 2013).

Legend:
human CB2 receptors = target: T1, human CB2 receptors (Homo sapiens, UniProt P34972); assay: human CB2 radioligand binding assay ([3H]CP-55,940 competition)
T1 construct: expressed in transfected cells; host or cells: HEK293

rat CB2 [1] = target: T2, rat CB2 (Rattus norvegicus, UniProt Q9QZN9); assay: rat CB2 cyclase functional assay (HitHunter cAMP, HEK cells); format: cell-based; set-up: expressed in transfected cells; host or cells: HEK; conditions: forskolin 18 μM
T2 sequence (Q9QZN9 1-360): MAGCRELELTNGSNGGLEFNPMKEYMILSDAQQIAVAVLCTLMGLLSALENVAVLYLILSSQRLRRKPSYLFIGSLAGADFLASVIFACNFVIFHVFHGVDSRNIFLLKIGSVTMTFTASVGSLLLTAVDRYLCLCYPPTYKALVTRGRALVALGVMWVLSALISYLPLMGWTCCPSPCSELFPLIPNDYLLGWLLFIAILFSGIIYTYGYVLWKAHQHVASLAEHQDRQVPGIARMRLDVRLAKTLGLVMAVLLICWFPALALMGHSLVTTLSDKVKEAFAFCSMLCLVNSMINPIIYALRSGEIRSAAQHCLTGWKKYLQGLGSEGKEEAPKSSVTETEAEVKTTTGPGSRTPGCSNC

rat CB2 [2] = target: T2, rat CB2; assay: rat CB2 radioligand binding assay ([3H]CP-55,940 competition); set-up: expressed in transfected cells; host or cells: HEK293

T1 sequence (P34972 whole entry): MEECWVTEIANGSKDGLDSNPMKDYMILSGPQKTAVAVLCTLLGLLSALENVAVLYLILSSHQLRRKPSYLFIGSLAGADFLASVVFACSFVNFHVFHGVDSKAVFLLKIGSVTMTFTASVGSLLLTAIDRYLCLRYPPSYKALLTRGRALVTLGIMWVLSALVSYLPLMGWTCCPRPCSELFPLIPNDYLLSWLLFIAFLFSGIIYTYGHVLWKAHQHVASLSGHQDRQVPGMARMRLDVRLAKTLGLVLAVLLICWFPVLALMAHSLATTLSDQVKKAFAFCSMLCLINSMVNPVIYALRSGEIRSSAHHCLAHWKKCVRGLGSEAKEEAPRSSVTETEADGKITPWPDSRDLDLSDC

SMILES: COc1ccc(Cl)cc1C(=O)/N=c1\sn(C(C)(C)C)cc1CC(C)C [Example 37, N-[(5Z)-2-tert-butyl-4-isobutylisothiazol-5(2H)-ylidene]-5-chloro-2-methoxybenzamide]
- Ki (human CB2 receptors): 31 nM
- EC50 (rat CB2 [1]): 1.3 nM
- Ki (rat CB2 [2]): 5.8 nM

SMILES: CCCCc1cn(C(C)(C)C)s/c1=N\C(=O)[C@H]1CC[C@@](C)(C(=O)OC)C1(C)C [Example 170, Methyl (1R,3S)-3-({[(5Z)-4-butyl-2-tert-butylisothiazol-5(2H)-ylidene]amino}carbonyl)-1,2,2-trimethylcyclopentanecarboxylate]
- Ki (human CB2 receptors): 1.4 nM
- EC50 (rat CB2 [1]): 0.043 nM
- Ki (rat CB2 [2]): 1.7 nM

SMILES: CCCCc1cn(C(C)(C)C)s/c1=N\C(=O)[C@]1(C)CC[C@H](C(=O)O)C1(C)C [Example 173, (1S,3R)-3-({[(5Z)-4-butyl-2-tert-butylisothiazol-5(2H)-ylidene]amino}carbonyl)-2,2,3-trimethylcyclopentanecarboxylic acid]
- Ki (human CB2 receptors): 107 nM
- EC50 (rat CB2 [1]): 3.5 nM
- Ki (rat CB2 [2]): 77 nM

SMILES: COc1ccc(Cl)cc1C(=O)/N=c1\sn(C(C)(C)C)cc1COC(C)C [Example 72, N-[(5Z)-2-tert-butyl-4-(isopropoxymethyl)isothiazol-5(2H)-ylidene]-5-chloro-2-methoxybenzamide]
- Ki (human CB2 receptors): 19 nM
- EC50 (rat CB2 [1]): 0.054 nM
- Ki (rat CB2 [2]): 7.4 nM

SMILES: CCCCc1cn(C(C)(C)C)s/c1=N\C(=O)c1cc(OC)ccc1OC [Example 41, N-[(5Z)-4-butyl-2-tert-butylisothiazol-5(2H)-ylidene]-2,5-dimethoxybenzamide]
- Ki (human CB2 receptors): 45 nM
- EC50 (rat CB2 [1]): 0.21 nM
- Ki (rat CB2 [2]): 6.3 nM

SMILES: CCCCc1cn(C(C)(C)C)s/c1=N\C(=O)[C@@]1(C)CC[C@@H](C(=O)N2CCC2)C1(C)C [Example 222, (1S,3R)-3-(azetidin-1-ylcarbonyl)-N-[(5Z)-4-butyl-2-tert-butylisothiazol-5(2H)-ylidene]-1,2,2-trimethylcyclopentanecarboxamide]
- Ki (human CB2 receptors): 170 nM
- EC50 (rat CB2 [1]): 5.7 nM
- Ki (rat CB2 [2]): 70 nM

SMILES: CCCCc1cn(C(C)(C)C)s/c1=N\C(=O)[C@@]1(C)CC[C@@H](C(=O)NC)C1(C)C [Example 218, (1S,3R)—N^1-[(5Z)-4-butyl-2-tert-butylisothiazol-5(2H)-ylidene]-N^3,1,2,2-tetramethylcyclopentane-1,3-dicarboxamide]
- Ki (human CB2 receptors): 53 nM
- EC50 (rat CB2 [1]): 1.1 nM
- Ki (rat CB2 [2]): 29 nM

SMILES: CCCCc1cn(C(C)(C)C)s/c1=N\C(=O)c1cc(C(F)(F)F)ccc1OC[C@@H]1COC(=O)N1 [Example 195, N-[(5Z)-4-butyl-2-tert-butylisothiazol-5(2H)-ylidene]-2-{[(4R)-2-oxo-1,3-oxazolidin-4-yl]methoxy}-5-(trifluoromethyl)benzamide]
- Ki (human CB2 receptors): 16 nM
- EC50 (rat CB2 [1]): 1.4 nM
- Ki (rat CB2 [2]): 7.6 nM

SMILES: COc1ccc(Cl)cc1C(=O)/N=c1\sn(C(C)(C)C)cc1CCC(C)O (stereo not drawn) [Example 18, N-[(5Z)-2-tert-butyl-4-(3-hydroxybutyl)isothiazol-5(2H)-ylidene]-5-chloro-2-methoxybenzamide]
- Ki (human CB2 receptors): 86 nM
- EC50 (rat CB2 [1]): 2.7 nM
- Ki (rat CB2 [2]): 4.3 nM

SMILES: COc1ccc(C(F)(F)F)cc1C(=O)/N=c1\sn(C(C)(C)C)cc1CCCC#N [Example 134, N-[(5Z)-2-tert-butyl-4-(3-cyanopropyl)isothiazol-5(2H)-ylidene]-2-methoxy-5-(trifluoromethyl)benzamide]
- Ki (human CB2 receptors): 18 nM
- EC50 (rat CB2 [1]): 1.6 nM
- Ki (rat CB2 [2]): 1.1 nM

SMILES: CCCCc1cn(C(C)(C)C)s/c1=N\C(=NC#N)c1cc(C(F)(F)F)ccc1OC [Example 124, N-[(5Z)-4-butyl-2-tert-butylisothiazol-5(2H)-ylidene]-N′-cyano-2-methoxy-5-(trifluoromethyl)benzenecarboximidamide]
- Ki (human CB2 receptors): 3 nM
- EC50 (rat CB2 [1]): 0.027 nM
- Ki (rat CB2 [2]): 2.3 nM

SMILES: CCCCc1cn(C(C)(C)C)s/c1=N\C(=O)[C@@H]1CC[C@](C)(C(=O)NC)C1(C)C [Example 209, (1S,3R)—N^3-[(5Z)-4-butyl-2-tert-butylisothiazol-5(2H)-ylidene]-N^1,1,2,2-tetramethylcyclopentane-1,3-dicarboxamide]
- Ki (human CB2 receptors): 12 nM
- EC50 (rat CB2 [1]): 0.44 nM
- Ki (rat CB2 [2]): 7.3 nM

SMILES: COc1ccc(C(F)(F)F)cc1C(=O)/N=c1\sn(C(C)(C)C)cc1CCCCF [Example 149, N-[(5Z)-2-tert-butyl-4-(4-fluorobutyl)isothiazol-5(2H)-ylidene]-2-methoxy-5-(trifluoromethyl)benzamide]
- Ki (human CB2 receptors): 8.3 nM
- EC50 (rat CB2 [1]): 0.23 nM
- Ki (rat CB2 [2]): 0.15 nM

SMILES: CC(C)Cc1cn(C(C)(C)C)s/c1=N\C(=O)c1cc(Cl)ccc1OCCF [Example 144, N-[(5Z)-2-tert-butyl-4-isobutylisothiazol-5(2H)-ylidene]-5-chloro-2-(2-fluoroethoxy)benzamide]
- Ki (human CB2 receptors): 8.8 nM
- EC50 (rat CB2 [1]): 0.1 nM
- Ki (rat CB2 [2]): 1.2 nM

SMILES: CCCCc1cn(C(C)(C)C)s/c1=N\C(=O)c1cc(C(F)(F)F)ccc1OC [Example 127, N-[(5Z)-4-butyl-2-tert-butylisothiazol-5(2H)-ylidene]-2-methoxy-5-(trifluoromethyl)benzamide]
- Ki (human CB2 receptors): 3.7 nM
- EC50 (rat CB2 [1]): 0.16 nM
- Ki (rat CB2 [2]): 0.43 nM

SMILES: CCCCc1cn(C(C)(C)C)s/c1=N\C(=O)C1(C)CCC(C(=O)OC)C1(C)C (racemic) [Example 92, Methyl 3-({[(5Z)-4-butyl-2-tert-butylisothiazol-5(2H)-ylidene]amino}carbonyl)-2,2,3-trimethylcyclopentanecarboxylate]
- Ki (human CB2 receptors): 0.2 nM
- EC50 (rat CB2 [1]): 0.45 nM
- Ki (rat CB2 [2]): 0.25 nM

SMILES: COc1ccc(Cl)cc1C(=O)/N=c1\sn(C(C)(C)C)cc1CCC(C)(C)C#N [Example 137, N-[(5Z)-2-tert-butyl-4-(3-cyano-3-methylbutyl)isothiazol-5(2H)-ylidene]-5-chloro-2-methoxybenzamide]
- Ki (human CB2 receptors): 7.5 nM
- EC50 (rat CB2 [1]): 2.2 nM
- Ki (rat CB2 [2]): 2.6 nM

SMILES: COc1ccc(Cl)cc1C(=O)/N=c1\sn(C(C)(C)C)cc1CCCC(C)(F)F [Example 86, N-[(5Z)-2-tert-butyl-4-(4,4-difluoropentyl)isothiazol-5(2H)-ylidene]-5-chloro-2-methoxybenzamide]
- Ki (human CB2 receptors): 4.4 nM
- EC50 (rat CB2 [1]): 0.12 nM
- Ki (rat CB2 [2]): 0.64 nM

SMILES: CCCCc1cn(C(C)(C)C)s/c1=N\C(=O)[C@@]1(C)CC[C@@H](C(=O)OC)C1(C)C [Example 186, Methyl (1R,3S)-3-({[(5Z)-4-butyl-2-tert-butylisothiazol-5(2H)-ylidene]amino}carbonyl)-2,2,3-trimethylcyclopentanecarboxylate]
- Ki (human CB2 receptors): 1.7 nM
- EC50 (rat CB2 [1]): 0.38 nM
- Ki (rat CB2 [2]): 1.4 nM

SMILES: CCCCc1cn(C(C)(C)C)s/c1=N\S(=O)(=O)c1cccc(Cl)c1Cl [Example 122, N-[(5Z)-4-butyl-2-tert-butylisothiazol-5(2H)-ylidene]-2,3-dichlorobenzenesulfonamide]
- Ki (human CB2 receptors): 18 nM
- EC50 (rat CB2 [1]): 1.9 nM
- Ki (rat CB2 [2]): 11 nM

SMILES: CCCCc1cn(C(C)(C)C)s/c1=N\C(=O)c1cc(C(C)(F)F)ccc1OC [Example 69, N-[(5Z)-4-butyl-2-tert-butylisothiazol-5(2H)-ylidene]-5-(1,1-difluoroethyl)-2-methoxybenzamide]
- Ki (human CB2 receptors): 18 nM
- EC50 (rat CB2 [1]): 0.043 nM
- Ki (rat CB2 [2]): 1.6 nM

SMILES: CCCCc1cn(C(C)(C)C)s/c1=N\C(=O)c1cc(C#N)ccc1OC [Example 26, N-[(5Z)-4-butyl-2-tert-butylisothiazol-5(2H)-ylidene]-5-cyano-2-methoxybenzamide]
- Ki (human CB2 receptors): 14 nM
- EC50 (rat CB2 [1]): 0.23 nM
- Ki (rat CB2 [2]): 1 nM
